Legend:
[1] = tested on: C. elegans; settings: 1 mM trigonelline chloride, day 8 old worms
Procedure: Absolute quantification of the mtDNA copy number in wild type N2 worms was performed by real-time PCR. Relative values for nduo-1, and act-1 were compared within each sample to generate a ratio representing the relative level of mitochondrial DNA per nuclear genome. The average of at least two technical repeats was used for each biological data point. Each experiment was performed on at least ten independent biological samples (individual worms). Trigonelline treatment with 1 mM trigonelline chloride and experimental measurements were started at Day 1 of wild type N2 worm adulthood, in a regimen of chronic exposure till experiments termination.

[2] = tested on: RW1596 (myo-3p::GFP) worms; settings: 1 mM trigonelline chloride, 11 day old worms
Procedure: RW1596 (myo-3p::GFP) worms were collected at Day 1 (young adults) and at Day 11 (aged animals) for muscle integrity assessment. Worms were immobilized with tetramisole and analyzed by confocal microscopy, to assess the muscle fibers morphology shown by GFP fluorescence imaging. Trigonelline treatment with 1 mM trigonelline chloride and experimental measurements were started at Day 1 of wild type N2 worm adulthood, in a regimen of chronic exposure till experiments termination.

[3] = tested on: Human Skeletal Muscle Myotubes (HSMM); settings: 6 h
Procedure: Human primary myoblasts from two different donors were seeded in 6 well plates at a density of 200′000 cells per well in skeletal muscle growth medium (SKM-M, AMSbio). After one day, the differentiation was induced by a medium change for 4 days using differentiation culture medium (Gibco No. 31330-028). Cells were treated with isotopically labelled trigonelline (13C carbonyl; 32H on methyl) for 6 h.
Cell extracts were separated on a Vanquish UHPLC+focused LC system (Thermo Scientific) with a hydrophilic liquid chromatography (HILIC) iHILIC-Fusion(P) column (Hilicon) carrying the dimensions 150×2.1 mm, 5 μm and a guard column (iHILIC-fusion(P), Hilicon) in front. The separation of metabolites was achieved by applying a linear solvent gradient in normal phase at 0.25 mL/min flow rate and 35° C. of temperature. As mobile phase, solvent A was water with 10 mM ammonium acetate and 0.04% (v/v) ammonium hydroxide, pH ˜9.3, and solvent B was acetonitrile.
The eluting metabolites were analyzed with an Orbitrap Fusion Lumos mass spectrometer (Thermo Scientific) with a heated electrospray ionization (H-ESI) source in positive and negative mode at a resolution of 60,000 at m/z of 200. Instrument control and data analysis were conducted using Xcalibur (Thermo Scientific).

[4] = tested on: Human Skeletal Muscle Myotubes (HSMM); experiment: Colorimetric NAD+ quantification in human primary myoblasts differentiated to myotubes, 16 h treatment; type: cell-based; settings: different doses
Procedure: After one day, the differentiation is induced by a medium change for 4 days. Cells were treated with synthetic trigonelline monohydrate (FIG. 4A) or with Fenugreek seed extract enriched in trigonelline containing 40.45% trigonelline (FIG. 4B) for 16 h at difference doses. NAD+ was measured using colorimetric NAD+ quantification assay (Biovision NAD+/NADH Quantitation Colorimetric Kit #k337-100).

[5] = tested on: C57BL/6JRj male mice; experiment: Liver NAD+ in mice after oral gavage; type: in vivo; settings: equimolar of 300 mg/kg trigonelline, 120 minutes
Procedure: 10 weeks C57BL/6JRj male mice received trigonelline (sigma #T5509) or fenugreek seed extract enriched in trigonelline (40.45% trigonelline) by oral gavage (equimolar of 300 mg/kg trigonelline, n=8/group). After 120 minutes treatment, the liver was harvested and flash frozen in liquid nitrogen. NAD+ was measured in liver using an enzymatic method adapted from Dall, M., et al., Mol Cell Endocrinol, 2018. 473:p. 245-256.

[6] = tested on: C. elegans; settings: 1 mM
Procedure: C. elegans mobility test was performed using the Movement Tracker software (Mouchiroud, L. et al. Curr Protoc Neurosci 77, 8.37.1-8.37.21 (2016)). The experiments were repeated at least twice. Trigonelline treatment and experimental measurements were started at Day 1 of wild type N2 worm adulthood, in a regimen of chronic exposure till experiments termination.

[7] = tested on: C. elegans; settings: 1 mM, chronic exposure from Day 1 of adulthood, wild type N2
Procedure: Worm lifespan tests were performed using about 100 animals per condition and scored manually every other day. Trigonelline treatment and experimental measurements were started at Day 1 of wild type N2 worm adulthood, in a regimen of chronic exposure till experiments termination.

[8] = tested on: C. elegans; settings: 1 mM, day 8 and day 11 old worms
From the text: 45 to 60 worms per condition were manually scored for mobility after poking. Worms that were unable to respond to any repeated stimulation were scored as dead. […] Trigonelline treatment and experimental measurements were started at Day 1 of wild type N2 worm adulthood, in a regimen of chronic exposure til experiments termination.

SMILES: C[n+]1cccc(C(=O)[O-])c1 [trigonelline, 1-methylpyridin-1-ium-3-carboxylate]
- Mitochondrial (nduo-1) relative to nuclear (act-1) DNA ratio compared to control [1]: higher than in the control group
- Myofibrillar structure (GFP-tagged myosin morphology) compared to age matched control [2]: improved more organized myofibrillar structure
- NAD+ levels relative to control ([3]; 500 μM, human myotubes from 2 donors, LC-MS): enhancement of NAD+ levels

SMILES: C[n+]1cccc(C(=O)[O-])c1 [chemically synthesized trigonelline, trigonelline monohydrate]
- NAD+ content compared to the control [4]: significant increase in NAD+ content
- NAD+ content in the liver compared to the control [5]: significant increase in NAD+ content in the liver

SMILES: C[n+]1cccc(C(=O)O)c1 [trigonelline chloride]
- Distance travelled during spontaneous mobility assay compared to control ([6]; advanced aging phase): significantly increased
- Mean speed during spontaneous mobility assay compared to the control ([6]; from day 1 adulthood): increased the mean speed
- Increase of lifespan (survival curve) [7]: 21%
- Stimulated mobility score (percentage of worms responsive to a physical stimulus) [8]: more responsive to a physical stimulus

SMILES: C[n+]1cccc(C(=O)[O-])c1 [trigonelline (13C-carbonyl, C2H3), reference compound]
- [13C]-isotopic enrichment of NAD+ (% of 13C-enrichment) ([3]; 500 μM labelled trigonelline, compared to NAD+ in baseline conditions, corrected for natural abundance): 45%

Reference: patent US20220249462A1, “COMPOSITIONS AND METHODS USING TRIGONELLINE TO PRODUCE INTRACELLULAR NAD+” (SOCIETE DES PRODUITS NESTLE S.A., priority 2019, published 2022)
